According to US20230027620A1, “PENTAPEPTIDE AND METHODS OF USE THEREOF” (THE BOARD OF TRUSTEES OF THE UNIVERSITY OF ILLINOIS, priority 2019, published 2023):

Test system: Human corneal epithelial (HCE) cells
Test: In vitro scratch assay, HCE cells
Format: cell-based
Conditions: compared with scrambled peptide control (SP1)
Protocol: Human corneal epithelial (HCE) cells were cultured in a Medium Essential Media (MEM; Gibco, Life Technologies, Carlsbad, Calif.). HeLa cells were maintained in Dulbecco's Modified Eagle's Medium (DMEM; Life Technologies, Grand Island, N.Y.). Both media were supplemented with 10% fetal bovine serum (Gibco, Life Technologies, Carlsbad, Calif.) and 1% penicillin-streptomycin (Gibco, Life Technologies, Carlsbad, Calif.). […]
In Vitro Scratch Assay. […] The wound area at each time-point was measured using Image J software (Image J 1.47v, NIH, Thornwood, Bethesda, Md.). Relative wound closure was calculated by dividing the closure of the treated wound by that of the untreated wound. […]
A cell sprouting assay using HCE cells embedded as a spot in growth factor reduced solubilized basement membrane sold under the tradename MATRIGEL® (Corning Life Sciences, Tewksbury, Mass.) was used to determine if HST5 could promote epithelial cell migration. […] Time-lapse microscopy was performed and wound areas were analyzed at different time points. […]
Wound closure rates of the three salt forms were also analyzed in accordance with the methods disclosed herein. In particular, human corneal epithelial cells were scratched using standardized scratch assays and rates of wound healing were measured after application of the acetic acid, hydrochloride and trifluoroacetate salt forms of SHRGY (SEQ ID NO:2).

DSHAKRHHGYKRKFHEKHHSHRGY [Hst5]
concentration of statistically significant peak effect on scratch closure: 80 µM
